Data as given in ChEMBL document CHEMBL4507286 (2021).
The source made the active and inactive calls. The rule behind the calls is not given here.

Tests used:
[1] = molecular target: Tyrosine-protein kinase Fgr (Homo sapiens) (UniProt P09769)
[2] = molecular target: Alpha-1D adrenergic receptor (Homo sapiens) (UniProt P25100); settings: Compound concentration 10.0 uM
[3] = molecular target: Fibroblast growth factor receptor 2 (Homo sapiens) (UniProt P21802)
[4] = molecular target: 5-hydroxytryptamine receptor 1E (Homo sapiens) (UniProt P28566); settings: Compound concentration 10.0 uM
[5] = molecular target: D(2) dopamine receptor (Homo sapiens) (UniProt P14416); settings: Compound concentration 10.0 uM
[6] = molecular target: GABA-A receptor; anion channel (Rattus norvegicus) (UniProt O09028+P15431+P18506+P18508+P19969+P20236+P23574+P23576+P28471+P28473+P30191+P62813+P63079+P63138+Q91ZM7+Q9ES14); settings: Compound concentration 10.0 uM
[7] = molecular target: Rhodopsin kinase GRK1 (Homo sapiens) (UniProt Q15835)
[8] = molecular target: Ribosomal protein S6 kinase alpha-2 (Homo sapiens) (UniProt Q15349)
[9] = molecular target: Tyrosine-protein kinase JAK3 (Homo sapiens) (UniProt P52333)
[10] = molecular target: Serine/threonine-protein kinase B-raf (Homo sapiens) (UniProt P15056)
[11] = molecular target: Phosphatidylinositol 4-phosphate 3-kinase C2 domain-containing subunit beta (Homo sapiens) (UniProt O00750)
[12] = tested on: Tyrosine-protein kinase ABL1 (Homo sapiens), P00519 [T315I]
[13] = molecular target: Delta-type opioid receptor (Homo sapiens) (UniProt P41143); settings: Compound concentration 10.0 uM
[14] = molecular target: Sigma intracellular receptor 2 (Homo sapiens) (UniProt Q5BJF2); settings: Compound concentration 10.0 uM
[15] = molecular target: Sigma non-opioid intracellular receptor 1 (Homo sapiens) (UniProt Q99720); settings: Compound concentration 10.0 uM
[16] = molecular target: Calcium/calmodulin-dependent protein kinase type 1D (Homo sapiens) (UniProt Q8IU85)
[17] = molecular target: 5-hydroxytryptamine receptor 2B (Homo sapiens, UniProt P41595); experiment: GPCRScan assay: inhibition of 5-HT2B; set-up: radioligand conc. used [nm] 1.0 – 2.0, parental cells stable HEK
[18] = molecular target: Cyclin-dependent kinase 2 (Homo sapiens, UniProt P24941); experiment: Invitrogen kinase screen (CDK2)
[19] = molecular target: 5-hydroxytryptamine receptor 6 (Homo sapiens) (UniProt P50406); settings: Compound concentration 10.0 uM
[20] = molecular target: Serine/threonine-protein kinase Sgk1 (Homo sapiens, UniProt O00141); experiment: Invitrogen kinase screen (SGK)
[21] = molecular target: Dual specificity protein kinase CLK4 (Homo sapiens, UniProt Q9HAZ1); experiment: Inhibition of CLK4 at compound concentration of 10.0 uM using the ScanMax (DiscoverX)
[22] = molecular target: Beta-2 adrenergic receptor (Homo sapiens) (UniProt P07550); settings: Compound concentration 10.0 uM
[23] = molecular target: Glycogen synthase kinase-3 beta (Homo sapiens, UniProt P49841); experiment: Invitrogen kinase screen (GSK3B)
[24] = molecular target: Dual specificity protein kinase CLK2 (Homo sapiens, UniProt P49760); experiment: Invitrogen kinase screen (CLK2)
[25] = molecular target: Serine/threonine-protein kinase MARK2 (Homo sapiens, UniProt Q7KZI7); experiment: Invitrogen kinase screen (MARK2)
[26] = molecular target: Serine/threonine-protein kinase haspin (Homo sapiens, UniProt Q8TF76); experiment: Inhibition of GSG2 at compound concentration of 10.0 uM using the ScanMax (DiscoverX)
[27] = NanoBRET (MAPK3, SGC Frankfurt); settings: Homo sapiens
[28] = molecular target: T1, Mitogen-activated protein kinase 1 (Homo sapiens, UniProt P28482); experiment: Cell Assay: Inhibition of RSK phosphorylation (pRSK with 40% human serum)
[29] = molecular target: cGMP-dependent protein kinase 2 (Homo sapiens, UniProt Q13237); experiment: Invitrogen kinase screen (PRKG2)
[30] = molecular target: Cyclin-dependent kinase 7 (Homo sapiens, UniProt P50613); experiment: Inhibition of CDK7 at compound concentration of 10.0 uM using the ScanMax (DiscoverX)
[31] = molecular target: Serine/threonine-protein kinase TBK1 (Homo sapiens, UniProt Q9UHD2); experiment: Invitrogen kinase screen (TBK1)
[32] = NanoBRET (MAPK1, SGC Frankfurt); settings: Homo sapiens
[33] = molecular target: T1, Mitogen-activated protein kinase 1
[34] = molecular target: T1, Mitogen-activated protein kinase 1; experiment: Cell Assay: Inhibition of RSK phosphorylation (pRSK with 40% mouse serum )
[35] = molecular target: Glycogen synthase kinase-3 alpha (Homo sapiens, UniProt P49840); experiment: Invitrogen kinase screen (GSK3A)
[36] = molecular target: 5-hydroxytryptamine receptor 1B (Homo sapiens) (UniProt P28222); settings: Compound concentration 10.0 uM
[37] = molecular target: T1, Mitogen-activated protein kinase 1; experiment: Invitrogen kinase screen (MAPK1)
[38] = molecular target: Serine/threonine-protein kinase ULK1 (Homo sapiens, UniProt O75385); experiment: Inhibition of ULK1 at compound concentration of 10.0 uM using the ScanMax (DiscoverX)
[39] = molecular target: Muscarinic acetylcholine receptor M1 (Homo sapiens) (UniProt P11229); settings: Compound concentration 10.0 uM
[40] = molecular target: G protein-coupled receptor kinase 3 (Homo sapiens, UniProt P35626); experiment: Inhibition of GRK3 at compound concentration of 10.0 uM using the ScanMax (DiscoverX)
[41] = molecular target: T1, Mitogen-activated protein kinase 1; experiment: Cell Assay: Inhibition of RSK phosphorylation (pRSK A375SM); format: cell-based, A375-SM
[42] = molecular target: Serine/threonine-protein kinase 26 (Homo sapiens, UniProt Q9P289); experiment: Invitrogen kinase screen (STK26)
[43] = molecular target: Cyclin-dependent kinase 5 (Homo sapiens, UniProt Q00535); experiment: Invitrogen kinase screen (CDK5)
[44] = Compound concentration 1000.0 nM
[45] = Compound concentration 100.0 nM

T1 sequence (P28482 whole entry): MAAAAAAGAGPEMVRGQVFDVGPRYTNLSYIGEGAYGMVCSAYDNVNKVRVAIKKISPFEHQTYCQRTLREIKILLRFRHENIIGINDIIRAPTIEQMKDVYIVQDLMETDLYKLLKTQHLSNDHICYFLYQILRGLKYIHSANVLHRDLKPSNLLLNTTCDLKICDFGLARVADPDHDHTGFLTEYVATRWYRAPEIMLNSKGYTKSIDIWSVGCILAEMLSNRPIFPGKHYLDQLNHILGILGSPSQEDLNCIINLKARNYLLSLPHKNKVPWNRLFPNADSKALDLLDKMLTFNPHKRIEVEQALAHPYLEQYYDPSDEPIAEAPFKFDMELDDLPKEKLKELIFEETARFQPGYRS
Chain of Phosphatidylinositol 4-phosphate 3-kinase C2 domain-containing subunit beta (Homo sapiens) (O00750 whole entry, the tested form may be a part): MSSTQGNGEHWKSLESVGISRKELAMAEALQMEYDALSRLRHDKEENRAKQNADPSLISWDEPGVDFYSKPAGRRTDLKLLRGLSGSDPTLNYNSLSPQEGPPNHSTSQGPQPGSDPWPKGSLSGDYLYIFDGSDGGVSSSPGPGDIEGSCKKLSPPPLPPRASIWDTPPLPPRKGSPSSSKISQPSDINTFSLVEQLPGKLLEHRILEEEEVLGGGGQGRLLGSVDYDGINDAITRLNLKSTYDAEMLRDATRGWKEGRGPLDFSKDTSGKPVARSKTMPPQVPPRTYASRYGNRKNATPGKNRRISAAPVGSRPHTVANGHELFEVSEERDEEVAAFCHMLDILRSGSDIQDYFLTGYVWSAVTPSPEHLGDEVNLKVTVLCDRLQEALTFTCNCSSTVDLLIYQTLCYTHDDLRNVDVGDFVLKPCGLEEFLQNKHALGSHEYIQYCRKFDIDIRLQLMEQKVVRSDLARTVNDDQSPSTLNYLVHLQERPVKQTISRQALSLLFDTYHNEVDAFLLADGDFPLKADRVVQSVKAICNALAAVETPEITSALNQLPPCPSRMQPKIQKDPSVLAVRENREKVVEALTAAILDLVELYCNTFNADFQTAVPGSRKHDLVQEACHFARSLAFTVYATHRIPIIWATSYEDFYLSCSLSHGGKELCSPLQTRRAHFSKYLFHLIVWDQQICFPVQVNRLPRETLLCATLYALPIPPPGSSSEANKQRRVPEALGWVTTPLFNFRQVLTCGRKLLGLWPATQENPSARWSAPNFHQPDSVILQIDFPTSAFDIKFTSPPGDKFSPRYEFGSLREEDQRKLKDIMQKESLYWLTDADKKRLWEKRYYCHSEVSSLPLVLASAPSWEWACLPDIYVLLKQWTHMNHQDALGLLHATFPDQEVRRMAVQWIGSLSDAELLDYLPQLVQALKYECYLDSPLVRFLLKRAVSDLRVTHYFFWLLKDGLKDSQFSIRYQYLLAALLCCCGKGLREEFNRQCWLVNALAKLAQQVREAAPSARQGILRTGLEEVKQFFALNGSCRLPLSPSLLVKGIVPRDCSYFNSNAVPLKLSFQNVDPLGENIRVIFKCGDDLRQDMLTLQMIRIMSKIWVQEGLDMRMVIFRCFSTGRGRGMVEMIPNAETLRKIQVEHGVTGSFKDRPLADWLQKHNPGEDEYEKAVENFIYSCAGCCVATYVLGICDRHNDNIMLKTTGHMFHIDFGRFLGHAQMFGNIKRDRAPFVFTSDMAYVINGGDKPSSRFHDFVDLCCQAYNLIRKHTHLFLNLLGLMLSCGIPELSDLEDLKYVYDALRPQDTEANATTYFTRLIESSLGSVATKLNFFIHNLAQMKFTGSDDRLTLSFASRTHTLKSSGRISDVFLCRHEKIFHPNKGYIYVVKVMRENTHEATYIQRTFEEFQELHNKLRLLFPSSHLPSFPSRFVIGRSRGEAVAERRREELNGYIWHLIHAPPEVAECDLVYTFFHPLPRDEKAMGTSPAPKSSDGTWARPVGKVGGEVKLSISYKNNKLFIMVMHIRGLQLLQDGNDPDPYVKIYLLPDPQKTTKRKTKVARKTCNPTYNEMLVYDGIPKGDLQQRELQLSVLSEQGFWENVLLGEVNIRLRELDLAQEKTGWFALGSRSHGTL
Chain of Rhodopsin kinase GRK1 (Homo sapiens) (Q15835 whole entry): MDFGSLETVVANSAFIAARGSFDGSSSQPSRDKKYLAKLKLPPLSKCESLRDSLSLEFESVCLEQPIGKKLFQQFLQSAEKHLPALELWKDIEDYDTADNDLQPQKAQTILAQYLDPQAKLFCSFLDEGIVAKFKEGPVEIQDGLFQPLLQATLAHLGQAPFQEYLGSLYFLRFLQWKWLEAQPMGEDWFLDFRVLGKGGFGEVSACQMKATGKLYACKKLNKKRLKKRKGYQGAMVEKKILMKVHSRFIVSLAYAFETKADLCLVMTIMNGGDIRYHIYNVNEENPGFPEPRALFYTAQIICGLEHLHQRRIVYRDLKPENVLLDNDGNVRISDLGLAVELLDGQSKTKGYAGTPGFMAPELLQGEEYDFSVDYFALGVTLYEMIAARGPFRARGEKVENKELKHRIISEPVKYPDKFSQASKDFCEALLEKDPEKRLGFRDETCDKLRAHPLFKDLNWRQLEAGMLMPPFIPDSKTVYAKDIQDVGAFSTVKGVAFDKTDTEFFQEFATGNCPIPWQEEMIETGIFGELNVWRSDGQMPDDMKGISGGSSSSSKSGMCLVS
Chain of Serine/threonine-protein kinase B-raf (Homo sapiens) (P15056 whole entry, the tested form may be a part): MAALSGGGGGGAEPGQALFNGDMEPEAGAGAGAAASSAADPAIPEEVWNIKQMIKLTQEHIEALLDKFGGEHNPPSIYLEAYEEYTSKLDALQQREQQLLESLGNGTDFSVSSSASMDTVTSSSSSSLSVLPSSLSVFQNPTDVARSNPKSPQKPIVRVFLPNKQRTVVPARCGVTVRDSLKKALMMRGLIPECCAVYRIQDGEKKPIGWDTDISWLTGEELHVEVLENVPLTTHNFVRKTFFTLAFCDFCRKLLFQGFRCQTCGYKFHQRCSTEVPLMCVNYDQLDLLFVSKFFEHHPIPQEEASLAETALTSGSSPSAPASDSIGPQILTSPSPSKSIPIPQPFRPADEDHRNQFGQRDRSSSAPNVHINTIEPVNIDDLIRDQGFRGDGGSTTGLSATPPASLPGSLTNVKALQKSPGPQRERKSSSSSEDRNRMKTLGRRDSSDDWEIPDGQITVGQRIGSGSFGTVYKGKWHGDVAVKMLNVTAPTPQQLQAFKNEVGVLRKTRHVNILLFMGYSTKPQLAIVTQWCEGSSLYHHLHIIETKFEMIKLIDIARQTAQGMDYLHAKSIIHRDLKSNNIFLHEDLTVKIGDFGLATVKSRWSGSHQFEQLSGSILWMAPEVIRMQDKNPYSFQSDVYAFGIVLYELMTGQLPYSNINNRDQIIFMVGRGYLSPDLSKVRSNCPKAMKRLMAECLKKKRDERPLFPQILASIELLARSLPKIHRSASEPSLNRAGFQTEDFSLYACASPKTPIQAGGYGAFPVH
Chain of Calcium/calmodulin-dependent protein kinase type 1D (Homo sapiens) (Q8IU85 whole entry, looked up): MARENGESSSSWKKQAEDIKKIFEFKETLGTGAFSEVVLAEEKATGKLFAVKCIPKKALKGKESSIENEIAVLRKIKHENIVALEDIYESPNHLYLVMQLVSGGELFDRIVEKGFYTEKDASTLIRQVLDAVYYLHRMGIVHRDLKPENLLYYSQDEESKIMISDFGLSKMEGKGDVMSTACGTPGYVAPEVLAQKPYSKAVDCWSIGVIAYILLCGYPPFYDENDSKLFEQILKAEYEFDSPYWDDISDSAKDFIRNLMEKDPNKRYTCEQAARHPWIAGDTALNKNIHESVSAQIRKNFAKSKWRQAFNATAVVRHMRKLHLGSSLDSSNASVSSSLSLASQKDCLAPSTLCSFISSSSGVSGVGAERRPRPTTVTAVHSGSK
Chain of Ribosomal protein S6 kinase alpha-2 (Homo sapiens) (Q15349 whole entry): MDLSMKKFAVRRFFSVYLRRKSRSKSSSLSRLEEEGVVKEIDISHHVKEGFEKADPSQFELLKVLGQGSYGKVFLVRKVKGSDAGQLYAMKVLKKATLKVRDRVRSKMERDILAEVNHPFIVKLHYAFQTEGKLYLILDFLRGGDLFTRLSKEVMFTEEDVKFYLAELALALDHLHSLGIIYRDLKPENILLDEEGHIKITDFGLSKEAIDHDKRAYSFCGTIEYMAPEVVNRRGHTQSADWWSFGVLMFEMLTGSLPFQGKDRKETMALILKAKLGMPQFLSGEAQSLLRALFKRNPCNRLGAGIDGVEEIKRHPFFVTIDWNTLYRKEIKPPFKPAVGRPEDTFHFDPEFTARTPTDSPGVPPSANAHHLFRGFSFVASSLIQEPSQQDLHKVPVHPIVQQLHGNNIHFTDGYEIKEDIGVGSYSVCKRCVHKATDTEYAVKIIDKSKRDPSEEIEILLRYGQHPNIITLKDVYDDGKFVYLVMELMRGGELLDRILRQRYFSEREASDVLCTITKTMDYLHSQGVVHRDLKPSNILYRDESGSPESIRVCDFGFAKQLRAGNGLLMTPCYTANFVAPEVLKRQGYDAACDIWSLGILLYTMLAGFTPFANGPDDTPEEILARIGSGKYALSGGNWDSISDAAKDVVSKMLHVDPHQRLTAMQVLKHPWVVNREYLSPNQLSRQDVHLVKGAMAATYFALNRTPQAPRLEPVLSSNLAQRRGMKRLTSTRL
Chain of Tyrosine-protein kinase Fgr (Homo sapiens) (P09769 2-529 limits assumed): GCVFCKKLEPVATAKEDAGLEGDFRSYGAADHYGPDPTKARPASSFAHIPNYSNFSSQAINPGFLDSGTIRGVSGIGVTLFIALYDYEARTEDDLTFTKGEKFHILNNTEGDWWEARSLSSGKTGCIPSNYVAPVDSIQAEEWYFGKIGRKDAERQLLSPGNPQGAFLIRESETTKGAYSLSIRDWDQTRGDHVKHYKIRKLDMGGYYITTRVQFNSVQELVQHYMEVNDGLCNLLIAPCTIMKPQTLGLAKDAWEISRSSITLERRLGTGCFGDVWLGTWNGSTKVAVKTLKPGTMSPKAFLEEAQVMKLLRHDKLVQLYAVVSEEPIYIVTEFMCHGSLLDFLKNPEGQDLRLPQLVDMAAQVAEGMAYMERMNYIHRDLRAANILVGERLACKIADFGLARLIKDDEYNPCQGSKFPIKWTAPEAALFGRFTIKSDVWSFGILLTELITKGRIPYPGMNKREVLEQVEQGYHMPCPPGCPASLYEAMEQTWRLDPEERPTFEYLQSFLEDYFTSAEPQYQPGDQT

C[C@H](NC(=O)Nc1cc2[nH]ncc2c(CO)n1)c1ccccn1 [ERKi-NC]
residual activity [1, 44]: 100%
inhibition [2]: -7.9%
residual activity [3, 44]: 62%
inhibition [4]: -8.44%
inhibition [5]: 17.7%
inhibition [6]: 25.5%
residual activity [7, 44]: 59.5%
residual activity [8, 44]: 100%
residual activity [9, 44]: 100%
residual activity [10, 44]: 100%
residual activity [11, 44]: 100%
residual activity [12, 44]: 94.4%
inhibition [13]: 2.71%
inhibition [14]: 20.8%
inhibition [15]: 12.8%
residual activity [16, 44]: 100%
Ki [17]: 538 nM

C[C@@H](NC(=O)Nc1cc2[nH]ncc2c(CO)n1)c1ccccc1 [ERKi]
IC50 [18]: 790 nM (not active)
inhibition [19]: 8.67%
IC50 [20]: 270 nM (not active)
Kd [21]: 230 nM (not active)
residual activity [1, 45]: 100%
inhibition [22]: 1.36%
IC50 [23]: 540 nM (not active)
IC50 [24]: 940 nM (not active)
residual activity [3, 45]: 100%
IC50 [25]: 1400 nM (not active)
Kd [26]: 130 nM (not active)
EC50 [27]: 32 nM (active)
IC50 [27]: 6690 nM
IC50 [28]: 225 nM (active)
IC50 [29]: 950 nM (not active)
Kd [30]: 230 nM (not active)
IC50 [31]: 770 nM (not active)
EC50 [32]: 95 nM (active)
IC50 [32]: 850 nM (active)
Kd [33]: 4.8 nM (active)
IC50 [34]: 788 nM (active)
IC50 [35]: 210 nM (not active)
residual activity [7, 45]: 78.3%
residual activity [8, 45]: 90.7%
residual activity [9, 45]: 64.5%
residual activity [10, 45]: 86.9%
inhibition [36]: 4.23%
IC50 [37]: 4 nM (active)
Kd [38]: 140 nM (not active)
inhibition [39]: -1.16%
Kd [40]: 140 nM (not active)
residual activity [11, 45]: 85.7%
IC50 [41]: 280 nM (active)
residual activity [12, 45]: 100%
IC50 [42]: 880 nM (not active)
IC50 [43]: 1200 nM (not active)
residual activity [16, 45]: 83.3%
